Measured values taken from ChEMBL document CHEMBL1201862, “PubChem BioAssay data set” (2004).
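Cells were grown in 96-well plates and exposed to each compound for 48 hours at five concentrations; endpoints were interpolated linearly between bracketing concentrations, or set to the highest concentration if not reached. GI50: concentration for 50% inhibition of growth.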 Active and inactive are the calls of the source. No stated cut-off is given here; in the data, active = GI50 up to about 1.1 µM and inactive = higher.

Columns and labels:
Experiment in all cases: NCI tumour cell line growth inhibition, 48 h
786-0 = system: 786-0
A498 = system: A498
A549 = system: A549
CAKI-1 = system: CAKI-1
CCRF-CEM = system: CCRF-CEM
COLO 205 = system: COLO 205
DLD-1 = system: DLD-1
DMS-114 = system: DMS-114
DMS-273 = system: DMS-273
EKVX = system: EKVX
HCC 2998 = system: HCC 2998
HCT-116 = system: HCT-116
HCT-15 = system: HCT-15
HL-60 = system: HL-60
HOP-62 = system: HOP-62
HOP-92 = system: HOP-92
HT-29 = system: HT-29
IGROV-1 = system: IGROV-1
K562 = system: K562
KM12 = system: KM12
LOX IMVI = system: LOX IMVI
LXFL 529 = system: LXFL 529
M14 = system: M14
M19-MEL = system: M19-MEL
MOLT-4 = system: MOLT-4
Malme-3M = system: Malme-3M
NCI-H23 = system: NCI-H23
NCI-H460 = system: NCI-H460
NCI-H522 = system: NCI-H522
OVCAR-3 = system: OVCAR-3
OVCAR-4 = system: OVCAR-4
OVCAR-8 = system: OVCAR-8
RPMI-8226 = system: RPMI-8226
RXF 393 = system: RXF 393
RXF 631 = system: RXF 631
SF-268 = system: SF-268
SF-295 = system: SF-295
SF-539 = system: SF-539
SK-MEL-28 = system: SK-MEL-28
SK-MEL-2 = system: SK-MEL-2
SK-MEL-5 = system: SK-MEL-5
SK-OV-3 = system: SK-OV-3
SN12C = system: SN12C
SNB-19 = system: SNB-19
SNB-75 = system: SNB-75
SNB-78 = system: SNB-78
SW-620 = system: SW-620
TK-10 = system: TK-10
U-251 = system: U-251
UACC-257 = system: UACC-257
UACC-62 = system: UACC-62
UO-31 = system: UO-31
XF498 = system: XF498

With `O=C1C=C2CCCC2C(C(=O)O)(C(=O)O)C1` (stereo not drawn) the GI50 (786-0) was > 100 µM (inactive), the GI50 (A498) was > 100 µM (inactive) and the GI50 (A549) was > 100 µM (inactive). For the same compound, the GI50 (CAKI-1) was > 100 µM (inactive), the GI50 (CCRF-CEM) was > 100 µM (inactive) and the GI50 (COLO 205) was > 100 µM (inactive). For the same compound, the GI50 (DLD-1) was > 100 µM (inactive), the GI50 (DMS-114) was > 100 µM (inactive) and the GI50 (DMS-273) was > 100 µM (inactive). For the same compound, the GI50 (EKVX) was > 100 µM (inactive), the GI50 (HCC 2998) was > 100 µM (inactive) and the GI50 (HCT-116) was > 100 µM (inactive). The GI50 (HCT-15) was over 100 µM, the GI50 (HL-60) was > 100 µM (inactive) and the GI50 (HOP-62) was > 100 µM (inactive). The GI50 (HOP-92) was > 100 µM (inactive), the GI50 (HT-29) was > 100 µM (inactive) and the GI50 (IGROV-1) was > 100 µM (inactive). The GI50 (K562) was > 100 µM (inactive), the GI50 (KM12) was > 100 µM (inactive) and the GI50 (LOX IMVI) was > 100 µM (inactive). For the same compound, the GI50 (LXFL 529) was > 100 µM (inactive), the GI50 (M14) was > 100 µM (inactive) and the GI50 (M19-MEL) was > 100 µM (inactive). For the same compound, the GI50 (MOLT-4) was > 100 µM (inactive), the GI50 (Malme-3M) was > 100 µM (inactive) and the GI50 (NCI-H23) was > 100 µM (inactive). For the same compound, the GI50 (NCI-H460) was > 100 µM (inactive), the GI50 (NCI-H522) was > 100 µM (inactive) and the GI50 (OVCAR-3) was > 100 µM (inactive). For the same compound, the GI50 (OVCAR-4) was > 100 µM (inactive), the GI50 (OVCAR-8) was > 100 µM (inactive) and the GI50 (RPMI-8226) was > 100 µM (inactive). For the same compound, the GI50 (RXF 393) was > 100 µM (inactive), the GI50 (RXF 631) was > 100 µM (inactive) and the GI50 (SF-268) was > 100 µM (inactive). For the same compound, the GI50 (SF-295) was > 100 µM (inactive), the GI50 (SF-539) was > 100 µM (inactive) and the GI50 (SK-MEL-28) was > 100 µM (inactive). For the same compound, the GI50 (SK-MEL-2) was > 100 µM (inactive), the GI50 (SK-MEL-5) was > 100 µM (inactive) and the GI50 (SK-OV-3) was > 100 µM (inactive). For the same compound, the GI50 (SN12C) was > 100 µM (inactive), the GI50 (SNB-19) was > 100 µM (inactive) and the GI50 (SNB-75) was > 100 µM (inactive). For the same compound, the GI50 (SNB-78) was > 100 µM (inactive), the GI50 (SW-620) was > 100 µM (inactive) and the GI50 (TK-10) was > 100 µM (inactive). For the same compound, the GI50 (U-251) was > 100 µM (inactive), the GI50 (UACC-257) was > 100 µM (inactive) and the GI50 (UACC-62) was > 100 µM (inactive). For the same compound, the GI50 (UO-31) was > 100 µM (inactive) and the GI50 (XF498) was > 100 µM (inactive).
